PubChem BioAssay AID1996
Values after ≈ are worked out from the molar mass of the structure shown.

Conditions: buffer; pH 7.4; 200.0 µM

SMILES | solubility kinetic [µg/mL]
O=C(O)C1CCCCC1C(=O)NC(c1ccccc1)c1ccccc1 (configuration not stated) | 48.8 (≈ 145 µM)
COC(=O)CC1=C(C(=O)OC)[C@@H](c2ccccc2[N+](=O)[O-])C(C#N)=C(N)O1 | > 56
Cc1ccc2[nH]c3c(c2c1)CN(C(=O)CN1CCCCC1)CC3 | 41.8 (≈ 134 µM)
COCC(=O)N1CCN(c2cccc(Cl)c2)CC1 | > 40.3
CC(Oc1ccc(Cl)cc1Cl)C(=O)Nc1ccc(OCC(=O)O)cc1 (configuration not stated) | > 57.6
O=C(Cc1ccccc1)O/N=C1\CCCc2ccccc21 | 17.1 (≈ 61.2 µM)
O=C1CCCC2=C1C(c1cccs1)CC(=O)N2c1ccc(F)cc1 (configuration not stated) | 40.7 (≈ 119 µM)
O=C(Nc1cccc(S(=O)(=O)N2CCOCC2)c1)c1ccc(=O)[nH]c1 | > 54.5
CCOC(=O)c1ncccc1NC(=O)CC(=O)Nc1cccnc1C(=O)OCC | 58.2 (≈ 145 µM)
CN(C)CCNC(=S)Nc1ccccc1C(C)(C)C | > 41.9
CC(=O)c1cccc(NC(=O)CCC(=O)Oc2ccc(C)cc2)c1 | > 48.8
Cc1cccc(C)c1OCC(=O)Nc1ccccc1N1CCCCC1 | < 0.4
Nc1nc2ccccc2n1CCOc1ccc(Br)cc1 | 27.2 (≈ 81.9 µM)
CCOC(=O)CNC(=S)N(Cc1ccccc1)Cc1ccccc1F | 11.7 (≈ 32.5 µM)
Cc1cc(C)cc(OCC(=O)N2CCN(c3ncccn3)CC2)c1 | > 49
O=C(CCl)Nc1ccccc1C(=O)c1ccccc1 | > 41.1
COc1cc(-c2cc(C(=O)Nc3ccc(C)c(S(=O)(=O)N4CCOCC4)c3)c3ccccc3n2)cc(OC)c1OC | 6.7 (≈ 11.6 µM)
N#Cc1ccccc1NC(=O)COC(=O)c1c[nH]c2ccccc12 | 4.4 (≈ 13.8 µM)
CCc1cccc(C)c1N1C(=O)CC(C)(C)CC1=O | > 38.9
CC(C)(C)n1cnnc1Sc1ccc([N+](=O)[O-])cn1 | > 41.9
Cc1ccc(S(=O)(=O)N2CCN(c3ccccc3)CC2)c(C)c1 | 3 (≈ 9.08 µM)
CN(Cc1ccc(C(F)(F)F)cc1)C(=O)C1CC(=O)N(Cc2ccco2)C1 (configuration not stated) | 51.8 (≈ 136 µM)
COc1ccc2nc(SC)c(C#N)cc2c1 | < 0.2
CSC1=NCCN1C(=O)c1c(-c2c(F)cccc2Cl)noc1C | > 53.1

SMILES | solubility kinetic [µg/mL]
COc1ccccc1C(=O)COC(=O)C(NC(=O)Cc1ccccc1)C(C)C (configuration not stated) | 56.5 (≈ 147 µM)
O=C(OC(C(=O)NCc1ccccc1)c1ccccc1)c1ccco1 (configuration not stated) | 41.8 (≈ 125 µM)
COC(=O)CCCNC(=O)c1ccc2[nH]c(C)c(C)c2c1 | > 43.3
C=CCn1c(C(O)c2ccccc2)nc2ccccc21 (configuration not stated) | 24.2 (≈ 91.6 µM)
COC(=O)C(Cc1ccccc1)N1CCS(=O)(=O)CC1 (configuration not stated) | > 44.6
CCOC(=O)N1c2ccccc2C=CC1OCC (configuration not stated) | 8 (≈ 32.4 µM)
CC(=O)Nc1ccccc1NC(=O)c1ccc(C)c(C)c1 | > 42.4
CCc1cccc(CC)c1NC(=S)Nc1cccc(Cl)c1Cl | 1.4 (≈ 3.96 µM)
CC1CCCC(NC(=O)COC(=O)c2cc(=O)[nH]c3ccccc23)C1C (configuration not stated) | 4.6 (≈ 12.9 µM)
COc1ccc(C(=O)COC(=O)CNC(=O)c2ccc(C)s2)c(OC)c1 | > 56.6
CCOC(=O)C1CCCN(C(=S)Nc2ccc(S(=O)(=O)N3CCOCC3)cc2)C1 (configuration not stated) | > 66.2
Cc1nnc(SCC(=O)N(C)CC(=O)Nc2ccccc2Cl)s1 | > 55.6
Cc1nc2sc3c(c2c(=O)n1NC(=O)CCl)CCCC3 | > 46.8
CC(C)CC1(C)NC(=O)N(CC(=O)Nc2ccc3c(c2)OCCO3)C1=O (configuration not stated) | > 54.2
Cn1ccnc1SCC(=O)Nc1nc2c(F)c(F)c(F)cc2s1 | 0.6 (≈ 1.67 µM)
COc1ccc(Nc2nc(N)c([N+](=O)[O-])c(N3CCCC3)n2)cc1 | 26.5 (≈ 80.2 µM)
Fc1ccc(NCc2nnc3n2CCCCC3)cc1 | > 39
O=[N+]([O-])c1c(NCCO)cc(N2CCCCCC2)c2nonc12 | 40.5 (≈ 126 µM)
Cc1ccccc1NC(=O)CN1CCN(Cc2ccccc2)CC1 | 44.3 (≈ 137 µM)
COC(=O)c1cnc(SCC(=O)c2ccccc2)n1C | > 43.6
Cc1nc2ccccc2n1CCc1ccccc1 | 30.1 (≈ 127 µM)
CN(C)S(=O)(=O)c1ccc(C(=O)OCC(=O)NC(=O)NC2CCCC2)cc1 | 7.9 (≈ 19.9 µM)
CNc1nc(C)c([N+](=O)[O-])c(Nc2ccc(OC)cc2)n1 | 0.5 (≈ 1.73 µM)
Cc1cc(C(=O)Nc2ccncc2)ccc1[N+](=O)[O-] | 18.4 (≈ 71.5 µM)

SMILES | solubility kinetic [µg/mL]
OC1CCN(Cc2ccc3ccccc3c2)CC1 | 26.6 (≈ 110 µM)
O=C(c1ccc(F)cc1)c1ccc(OCC(=O)N2CCOCC2)cc1 | > 51.5
Cc1ccccc1C(=O)NCCCNC(=O)c1ccco1 | 42.9 (≈ 150 µM)
COc1ccc(C(=O)O/N=C(\N)c2ccccc2)cc1 | 27.1 (≈ 100 µM)
CC1CCCC(C)N1C(=O)COC(=O)c1ccc(Br)o1 (configuration not stated) | > 51.6
O=C(NC(=S)N1CCCC1)c1cccc([N+](=O)[O-])c1 | 39.5 (≈ 141 µM)
OCCNCC12CC3CC(CC(C3)C1)C2 | 26.4 (≈ 126 µM)
CN1C(=O)c2ccccc2N(C)C1c1cccc(O)c1 (configuration not stated) | 38.1 (≈ 142 µM)
COc1cccc(C(=O)Nc2c(F)cccc2F)c1 | > 39.5
Cn1c(N)c(C(=O)Nc2cccc(Cl)c2)c(=O)n(C)c1=O | 2.5 (≈ 8.1 µM)
O=c1[nH]c2ccccc2nc1NCc1ccccc1 | 3.9 (≈ 15.5 µM)
Cc1cc2ccccn2c1C(=O)c1ccccc1F | 12.5 (≈ 49.4 µM)
CCCC(=O)C1=C(O)C(C(=O)OC)C(C)(C)CC1=NCCc1ccccc1 (configuration not stated) | 53.4 (≈ 144 µM)
CC(=O)N/C(=C\c1ccccc1)C(=O)Nc1ccc(O)cc1 | > 44.4
Nc1ccc(S(=O)(=O)NC2=NCCCCC2)cc1 | > 40.1
O=[N+]([O-])c1ccc(N2CCCCC2)cc1 | 19.9 (≈ 96.5 µM)
COc1cccc(C2C([N+](=O)[O-])=C(N)Oc3cc(C)oc(=O)c32)c1 (configuration not stated) | > 49.5
Cc1cccc(C(=O)N=c2sccn2C)c1[N+](=O)[O-] | 17.3 (≈ 62.4 µM)
O=C(NCCN1CCOCC1)c1c(O)nc2ccccn2c1=O | > 47.7
CCOC(=O)CSc1nnc(-c2cccnc2)n1C | > 41.7
COc1ccc(/C=C/C2=Nc3ccccc3NC(C)(C)C2)cc1OC | 43 (≈ 128 µM)
CC(=O)Nc1nc(-c2ccc3c(c2)CC(C)N3C(=O)C2CC2)c(C)s1 (configuration not stated) | 35 (≈ 98.5 µM)
O=C(O)c1ccc(NC(=O)C(c2ccccc2)c2ccccc2)cc1 | > 49.7
O=[N+]([O-])c1cc(C(F)(F)F)ccc1NCCc1ccccn1 | 18.8 (≈ 60.4 µM)

SMILES | solubility kinetic [µg/mL]
CCCC(=O)Nc1nc(CC(=O)OCC)cs1 | > 38.4
CC(C)CC(=O)NC(=S)Nc1ccc(CN2CCOCC2)cc1 | > 50.3
CC(OC(=O)C1=COCCO1)C(=O)Nc1ccccc1C#N (configuration not stated) | 38.8 (≈ 128 µM)
CN1CCN(CCCNC(=O)Nc2ccc([N+](=O)[O-])cc2)CC1 | 44.8 (≈ 139 µM)
CCN=C(NCC)SC1CC(=O)N(CCc2ccccc2)C1=O (configuration not stated) | 36.3 (≈ 109 µM)
NC(=O)COc1ccc(NS(=O)(=O)Cc2ccccc2)cc1 | 46.1 (≈ 144 µM)
COc1ccc(C(C)NC(=S)NCc2ccc(F)cc2)cc1 (configuration not stated) | 4.4 (≈ 13.8 µM)
O=C(Nc1ccc(C(=O)N2CCCc3ccccc32)cc1)c1cccs1 | < 0.4
Cc1ccc(Nc2cc(C)nc(-c3ccccc3)n2)cc1 | 5.2 (≈ 18.9 µM)
O=C(CN1C(=O)c2cccc3cccc1c23)NC1CCCC1 | 4.4 (≈ 14.9 µM)
O=C(Nc1cccc(NC(=O)c2ccco2)c1)c1ccccc1 | 45.9 (≈ 150 µM)
CCOC(=O)c1c(C)[nH]c(C(=O)NCCN2CCOCC2)c1C | > 48.5
O=C(CC1SC(N2CCCCC2)=NC1=O)Nc1ccc(C(=O)NCc2ccccc2)cc1 (configuration not stated) | 61.3 (≈ 136 µM)
CC1CCCC(NC(=O)CN2C(=O)NC(C)(c3cc(F)ccc3F)C2=O)C1C (configuration not stated) | > 59
Cc1ccc(C(=O)NN2CCOCC2)cc1[N+](=O)[O-] | > 39.8
Cc1ccc(OCCC(=O)OCC(=O)Nc2ccccc2)cc1 | 16.5 (≈ 52.7 µM)
COc1cc2ccccc2cc1C(=O)Nc1ccc(C)cc1 | 2.3 (≈ 7.89 µM)
O=C(CCCC(=O)c1ccccc1)NCc1ccccc1 | > 42.2
O=C(O)C(=O)O.c1cncc(CNCCc2ccc3c(c2)OCO3)c1 | > 52
O=C1NC(=S)N(c2ccccc2)C(=O)/C1=C/c1ccco1 | 43 (≈ 144 µM)
CSc1nc(SCCN(C)C)c2c3c(sc2n1)COC(C)(C)C3 | 37.4 (≈ 101 µM)
C[C@]12CS(=O)(=O)C[C@H]1SC(=S)N2c1ccccc1 | > 44.9
O=C(O)c1cccnc1SCc1cn2cc(Cl)ccc2n1 | > 48
COc1ccccc1NC(=O)Cn1nc(C)n2cccc2c1=O | > 46.8

SMILES | solubility kinetic [µg/mL]
C=CCn1c(N)cc(=O)nc1SCC(=O)Nc1ccccc1C(N)=O | 49.9 (≈ 139 µM)
Cc1ccc(C)c(NC(=O)CSc2nc(C)cs2)c1 | 39.9 (≈ 136 µM)
Cc1ccc(NC(=S)NC2CCCC2)c(C)c1 | 33.3 (≈ 134 µM)
CC1Cc2ccccc2N1C(=O)c1ccc(F)c(S(=O)(=O)N2CCOCC2)c1 (configuration not stated) | 50.3 (≈ 124 µM)
O=C(Cc1ccc(Br)cc1)Nc1ccc(Cl)cc1 | < 0.7
CCOc1cc(NC(=O)CCl)c(OCC)cc1NC(=O)CCl | 6.8 (≈ 19.5 µM)
CCOc1ccccc1C(=O)NCC(=O)NCC1CCCCC1 | 5.6 (≈ 17.6 µM)
CCN(Cc1cc2cc(C)ccc2[nH]c1=O)C(=O)c1cccc([N+](=O)[O-])c1 | 11.5 (≈ 31.5 µM)
Cc1cccc(C(=O)OCC(=O)c2csc(N3CCCCC3)n2)c1[N+](=O)[O-] | 2.8 (≈ 7.19 µM)
O=S(=O)(NCCN1CCCC1)c1ccc(Br)cc1 | 46.9 (≈ 141 µM)
Cc1ccc(NC(=O)Cn2cc(C(=O)C3CC3)c3ccccc32)cc1 | < 0.4
COc1ccc(CNC(=O)CN(c2ccc(C(C)=O)cc2)S(=O)(=O)c2ccc(C)cc2)cc1OC | 4.1 (≈ 8.26 µM)
CCC(C)c1ccc(S(=O)(=O)N2CCN3CCCC3C2)cc1 (configuration not stated) | 34.1 (≈ 106 µM)
C=CCn1c(=O)c2ccccc2n2c(SCC(=O)N(C)C)nnc12 | > 51.5
CCOC(=O)c1cccc(NC(=O)CC2Oc3ccccc3NC2=O)c1 (configuration not stated) | 1.8 (≈ 5.08 µM)
COC(=O)C1=C(C(=O)OC)SC(=C2C(=S)C(C)(C)N(C(=O)C3CC3)c3ccccc32)S1 | 11.2 (≈ 23.5 µM)
O=C1CCCC(O)=C1C=NCc1ccccc1 | > 34.4
CCCC(=O)Nc1nc2c(C)c(Cl)ccc2s1 | < 0.3
O=C(c1ccc(Cl)c(S(=O)(=O)N2CCc3ccccc32)c1)N1CCN(c2ccccc2O)CC1 | 11.3 (≈ 22.7 µM)
Cc1ccc(CNC(=O)CNC(=O)c2ccco2)cc1 | > 40.8
S=C1NCN(Cc2cccnc2)CN1Cc1ccccc1 | > 44.8
